Where “and” joins values, the source holds several entries; their conditions need not be identical. Equal entries are not always repeated. Entries after “also recorded” stand apart in the source; their conditions may differ.
Tested on: adults with recurrence of glioblastoma multiforme (GBM)
Test: Phase 2 open-label study of IV AR-67 (7.5 mg/m2 once daily for 5 days, 21-day cycle) in recurrent GBM: adverse events (Safety Population, NCI-CTCAE). Cohort 1 = not received or not recently failed (>90 days) bevacizumab; Cohort 2 = recently (<90 days) failed bevacizumab
Format: in vivo, human
Settings: for 1 related SAE, patients (%) / related SAE, No of Events / related TEAE, No of Events / ≥1 related TEAE, patients (%): possibly, probably, or definitely related
Protocol: This solution was reconstituted in dextrose 5% in water to a final concentration between 0.06-0.6 mg/mL Drug (7.5 mg/m2) was to be given until the onset of toxicity requiring discontinuation or tumor progression. Tumor response was assessed=14d after every second cycle and before every third cycle using MRI.

[1] = reGBM, single agent, infusion, N = 45

CC[C@@]1(O)C(=O)OCc2c1cc1n(c2=O)Cc2c-1nc1ccc(O)cc1c2[Si](C)(C)C(C)(C)C [AR-67, (205)-7-tert-butyldimethysilyl-10-hydroxycamptothecin]
TEAE NCI-CTCAE Grade 1, No of Events (Cohort 1, N = 30): 178 | TEAE NCI-CTCAE Grade 1, patients (%) (Cohort 1, N = 30): (70.0) % | TEAE NCI-CTCAE Grade 2, No of Events (Cohort 1, N = 30): 94 | TEAE NCI-CTCAE Grade 2, patients (%) (Cohort 1, N = 30): (60.0) % | TEAE NCI-CTCAE Grade 3, No of Events (Cohort 1, N = 30): 63 | TEAE NCI-CTCAE Grade 3, patients (%) (Cohort 1, N = 30): (63.3) % | TEAE NCI-CTCAE Grade 4, No of Events (Cohort 1, N = 30): 5 | TEAE NCI-CTCAE Grade 4, patients (%) (Cohort 1, N = 30): (16.7) % | TEAE NCI-CTCAE Grade 5, No of Events (Cohort 1, N = 30): 0 | TEAE Nausea, patients (%) (Cohort 1, N = 30): 13.3% | TEAE Nervous System Disorders, patients (%) (Cohort 1, N = 30): (50.0) % | TEAE Neutropenia, patients (%) (Cohort 1, N = 30): 16.7% | TEAE Neutrophil count decreased, patients (%) (Cohort 1, N = 30): 16.7% | TEAE Not Related to AR-67, No of Events (Cohort 1, N = 30): 83 | TEAE Not Related to AR-67, patients (%) (Cohort 1, N = 30): (66.7) % | TEAE Platelet count decreased, patients (%) (Cohort 1, N = 30): 13.3% | TEAE Possibly Related to AR-67, No of Events (Cohort 1, N = 30): 146 | TEAE Possibly Related to AR-67, patients (%) (Cohort 1, N = 30): (66.7) % | TEAE Probably Related to AR-67, No of Events (Cohort 1, N = 30): 76 | TEAE Probably Related to AR-67, patients (%) (Cohort 1, N = 30): (40.0) % | TEAE Psychiatric Disorders, patients (%) (Cohort 1, N = 30): 30.0% | TEAE Respiratory, Thoracic, and Mediastinal Disorders, patients (%) (Cohort 1, N = 30): (30.0) % | TEAE Thrombocytopenia, patients (%) (Cohort 1, N = 30): 20% | TEAE Vascular Disorders, patients (%) (Cohort 1, N = 30): (23.3) % | TEAE Vision blurred, patients (%) (Cohort 1, N = 30): (10.0) % | TEAE Vomiting, patients (%) (Cohort 1, N = 30): 10.0% | TEAE White blood cell count decreased, patients (%) (Cohort 1, N = 30): 16.7% | TEAE leading to death, No of Events (Cohort 1, N = 30): 16 | TEAE leading to early discontinuation, No of Events (Cohort 1, N = 30): 5 | TEAE, No of Events (Cohort 1, N = 30): 346 | severe WBC count decreased, patients (%) (Cohort 1, N = 30): 10.0% | severe neutropenia, patients (%) (Cohort 1, N = 30): 16.7% | severe neutrophil count decreased, patients (%) (Cohort 1, N = 30): 10.0% | ≥1 TEAE leading to death, patients (%) (Cohort 1, N = 30): (3.3) % | 1 related SAE, patients (%) (Cohort 1, N = 30): (20.0) % | related SAE, No of Events (Cohort 1, N = 30): 10 | related TEAE, No of Events (Cohort 1, N = 30): 258 | ≥1 related TEAE, patients (%) (Cohort 1, N = 30): (83.3) % | SAE blood and lymphatic system disorders, events (Cohort 2): 3 | SAE blood and lymphatic system disorders, patients (Cohort 2): 2 | SAE headache, patients (Cohort 2): 2 | SAE nervous system disorders, events (Cohort 2): 6 | SAE nervous system disorders, patients (Cohort 2): 6 | Death, No of Events (Cohort 2, N = 13): 2 | Death, patients (%) (Cohort 2, N = 13): (15.4) % | SAE, No of Events (Cohort 2, N = 13): 14 | TEAE Blood and Lymphatic System Disorders, events (Cohort 2, N = 13): 3 | TEAE Blood and Lymphatic System Disorders, patients (%) (Cohort 2, N = 13): 15.4% and 15% | TEAE Constipation, patients (%) (Cohort 2, N = 13): 15.4% and 15% | TEAE Convulsion, patients (%) (Cohort 2, N = 13): 7.7% | TEAE Definitely Related to AR-67, No of Events (Cohort 2, N = 13): 8 | TEAE Definitely Related to AR-67, patients (%) (Cohort 2, N = 13): (38.5) % | TEAE Diarrhoea, patients (%) (Cohort 2, N = 13): 15.4% and 15% | TEAE Eye Disorders, patients (%) (Cohort 2, N = 13): 7.7% | TEAE Gastrointestinal Disorders, patients (%) (Cohort 2, N = 13): 53.8% | TEAE General Disorders and Administration Site Conditions, patients (%) (Cohort 2, N = 13): 38.5% | TEAE Intensity Life Threatening, No of Events (Cohort 2, N = 13): 1 | TEAE Intensity Life Threatening, patients (%) (Cohort 2, N = 13): (7.7) % | TEAE Intensity Mild, No of Events (Cohort 2, N = 13): 20 | TEAE Intensity Mild, patients (%) (Cohort 2, N = 13): (53.8) % | TEAE Intensity Moderate, No of Events (Cohort 2, N = 13): 18 | TEAE Intensity Moderate, patients (%) (Cohort 2, N = 13): (30.8) % | TEAE Intensity Severe, No of Events (Cohort 2, N = 13): 14 | TEAE Intensity Severe, patients (%) (Cohort 2, N = 13): (61.5) % | TEAE Investigations SOC, events (Cohort 2, N = 13): 2 | TEAE Investigations, patients (%) (Cohort 2, N = 13): 7.7% | TEAE Metabolism and Nutrition Disorders, patients (%) (Cohort 2, N = 13): (15.4) % | TEAE Musculoskeletal and Connective Tissue Disorders, patients (%) (Cohort 2, N = 13): 23.1% | TEAE NCI-CTCAE Grade 1, No of Events (Cohort 2, N = 13): 17 | TEAE NCI-CTCAE Grade 1, patients (%) (Cohort 2, N = 13): (53.8) % | TEAE NCI-CTCAE Grade 2, No of Events (Cohort 2, N = 13): 16 | TEAE NCI-CTCAE Grade 2, patients (%) (Cohort 2, N = 13): (30.8) % | TEAE NCI-CTCAE Grade 3, No of Events (Cohort 2, N = 13): 16 | TEAE NCI-CTCAE Grade 3, patients (%) (Cohort 2, N = 13): (69.2) % | TEAE NCI-CTCAE Grade 4, No of Events (Cohort 2, N = 13): 3 | TEAE NCI-CTCAE Grade 4, patients (%) (Cohort 2, N = 13): (23.1) % | TEAE NCI-CTCAE Grade 5, No of Events (Cohort 2, N = 13): 0 | TEAE Nausea, patients (%) (Cohort 2, N = 13): 30.8% and 31% | TEAE Nervous System Disorders, patients (%) (Cohort 2, N = 13): 46.2% | TEAE Neutropenia, patients (%) (Cohort 2, N = 13): 7.7% | TEAE Not Related to AR-67, No of Events (Cohort 2, N = 13): 25 | TEAE Not Related to AR-67, patients (%) (Cohort 2, N = 13): (53.8) % | TEAE Possibly Related to AR-67, No of Events (Cohort 2, N = 13): 19 | TEAE Possibly Related to AR-67, patients (%) (Cohort 2, N = 13): (53.8) % | TEAE Probably Related to AR-67, No of Events (Cohort 2, N = 13): 1 | TEAE Probably Related to AR-67, patients (%) (Cohort 2, N = 13): (7.7) % | TEAE Psychiatric Disorders, patients (%) (Cohort 2, N = 13): 23.1% | TEAE Respiratory, Thoracic, and Mediastinal Disorders, patients (%) (Cohort 2, N = 13): (15.4) % | TEAE Thrombocytopenia, patients (%) (Cohort 2, N = 13): 7.7% | TEAE Vision blurred, patients (%) (Cohort 2, N = 13): 7.7% | TEAE Vomiting, patients (%) (Cohort 2, N = 13): 7.7% | TEAE leading to death, No of Events (Cohort 2, N = 13): 1 | TEAE leading to early discontinuation, No of Events (Cohort 2, N = 13): 5 | TEAE, No of Events (Cohort 2, N = 13): 55 | ≥1 TEAE leading to death, patients (%) (Cohort 2, N = 13): (7.7) % | 1 related SAE, patients (%) (Cohort 2, N = 13): (38.5) % | related SAE, No of Events (Cohort 2, N = 13): 9 | related TEAE, No of Events (Cohort 2, N = 13): 28 | ≥1 related TEAE, patients (%) (Cohort 2, N = 13): (76.9) % | patients with AEs documented as mild, moderate, and severe intensity (span over the three) (Safety Population): 58-69% | toxicities relative to comparator drug (comparison with published trials of the comparator): reduced toxicities relative to the toxicities induced by Etirinotecan treatment; also recorded: reduced toxicities relative to the toxicities induced by Karenitecin treatment; also recorded: reduced toxicities relative to the toxicities induced by Gimatecan treatment; also recorded: reduced toxicities relative to the toxicities induced by Lomustine treatment; also recorded: does not display the severe dose limiting toxicities typical of the marketed standard, Irinotecan; also recorded: dramatically reduced toxicities relative to the toxicities induced by Irinotecan treatment | tolerability (in vivo): generally well tolerated | TEAEs leading to discontinuation from the nervous system disorders SOC, events (of the 10 TEAEs leading to discontinuation): Six | Diarrhoea Grades 3-5 (reGBM, single agent, N = 45): 0% | Nausea Grades 3-5 (reGBM, single agent, N = 45): 2% | Thrombocytopenia Grades 3-4 (reGBM, single agent, N = 45): 4% | Vomiting Grades 3-5 (reGBM, single agent, N = 45): 0% | Neutropenia Grades 3-4 (reGBM, single agent, N = 45, All grade 3): 13% | Diarrhoea Grade 4 [1]: 0% | Nausea Grades 3,4 [1]: 2% | Neutropenia Grade 4 [1]: 0% | Vomiting Grades 3,4 [1]: 0%

Source: patent publication US20220395497A1, “Cancer Treatment Using Camptothecin Derivatives” (priority 2019, published 2022)
